Results reported in US20250154202A1, “CYCLIC EPITOPE TAGS” (BIONTECH SE, priority 2022, published 2025).
Bridge positions count the residues as written; N and C are the ends. Peptide text beside a SMILES is read from it.

Experiments:
NbALFA = assay: SPR measurements of NbALFA binding (Biacore T200, multi cycle kinetics, 1:1 binding model); conditions: for Kd / ka / kd: 25° C., HBS-EP+ buffer, biotinylated NbALFA captured
Method: Affinity measurements were performed using a Biacore T200 (GE Healthcare, Biacore T200 control Software 3.2). […] A freshly docked Biotin CAPture chip was rehydrated overnight in the instrument (standby mode). […] The immobilization of the Nanobody was done for 180 s at 10 μL/min on FC2 followed by quenching of unbound streptavidin by 0.1 mM biocytin for 60 s and 30 μL/min on both flow cells. […] After each cycle, the surface was regenerated for 120 s with 10 μL/min using regeneration solution. All measurements were performed at 25° C. using HBS-EP+ buffer (Cytiva Europe, Cat. no BR100669). The control responses from FC1 were subtracted by the sample measurement in FC2 (FC2−FC1) followed by subtraction of the 0 nM blank injection. Resulting binding curves of this multi cycle kinetic experiment were fitted using the Biacore T200 Evaluation Software 3.2 and a 1:1 binding model.

[1] = Plasma stability, human plasma
Method: (§1) Plasma stability measurements were performed by spiking 5 μl of a 1 mM compound stock solution in DMSO into 495 μl of human or mouse Li-heparin plasma (Innovative Research, Cat. No, IPLALIH5OML (human) and IMS-BC-N (Balb C mouse). The spiked plasma was distributed in 50 μl aliquots into capped PCR tubes for incubation at 37° C. At each time point (0, 2, 6, 24 hours*) 3*aliquots were withdrawn from the incubator. Enzymatic reactions were quenched directly after withdrawal by adding 100 μl of acetonitrile/formic acid=99/1 (v/v). Quenched samples were stored at ambient temperature until the end of the incubation period (24 hrs*). After centrifugation, the supernatant was transferred into fresh vials and analyzed by LC-MS/MS in ESI positive mode (Waters ACQUITY UPLC I-Class System (SM-FTN) with Xevo TQD triple quadrupole mass spectrometer with control software Waters MassLynx). […] Values below the limit of quantification (0.1 μM) and outliers of triplicate results were excluded from further calculations. An exponential regression curve was fitted onto the concentration results. Half-life times were calculated from the slope of the regression curve (t1/2=ln(2)/slope).
(§2) For some samples, as indicated below, the incubation time was 6 hours. The 24 hour data was measured in triplicates whereas the 6 hour data was measured in duplicates.

anti-ALFA VHH = assay: binding affinity to the anti-ALFA VHH (log(agonist) vs. response, variable slope); conditions: for LogEC50: best-fit values, log(agonist) vs. response, variable slope; for EC50: binding to anti-ALFA VHH
[2] = Plasma stability, mouse plasma
Method: as §1, §2

[3] = Pharmacokinetic study in mouse, intravenous bolus, plasma LC-MS/MS, non-compartmental analysis; conditions: for AUC(0-inf): AUC0-inf; for AUC(0-t): AUC0-t
Method: C57BL/6NRj mice were obtained from Janvier Labs, France. In this study, approximately 8-week-old female mice were used.
Prior to administration into the lateral tail vein, the body weight of the animals was determined to calculate the individual volume of the injecting compound (5 mL/kg body weight). The injection, as well as the blood sampling, were carried out under short anesthesia (0.7 L/min O2, 1.7 L/min N2O, 2% Isoflurane). Blood was sampled from the retro-orbital plexus using microhematocrit capillary (Ø 0.8 mm) and collected into K3EDTA tubes, at the time points indicated in Table 10.
The plasma was separated by centrifugation (10,000×g; 10 min; 4° C.), aliquoted into microtubes and stored at −80° C.
20 μl of each plasma sample was transferred into PCR tubes. 80 μl IS (internal standard)-solution in acetonitrile+1% FA was added for protein precipitation.
The sample tubes were sealed with pierceable cap mats and vortexed. After homogenization for 5 min in an ultrasonic bath the samples were centrifuged at 3000 rpm at ambient temperature for 15 min. 1 μl supernatant was injected into the instrument for LC-MS/MS analysis. For LC-MS/MS quantification a ExionLC™ UHPLC coupled to a QTRAP® 6500+ mass spectrometer (Sciex) was used in ESI positive mode. Parameters for mass spectrometry were listed in the tables below, Chromatographic separation was achieved on a ACQUITY UPLC BEH C18 column (Waters, 1.7 μm, 2.1×50 mm).
Compound concentrations in plasma samples were calculated using a 10-point calibration curve in plasma over a concentration range of 1 to 1000 ng/ml. QC samples of 1, 10, 100, 1000 ng/ml were analyzed before and after each dose group. Samples exceeding the upper limit of quantification (1000 ng/ml) were re-analyzed after 10-fold dilution in blank plasma. All calculations were performed in Sciex OS Version 1.7.0.36606 and MS-EXCEL®.
Pharmacokinetic parameters were calculated for both compounds using the software Kinetica (version 4.4.1, Thermo Scientific) applying a non-compartmental model (NCA).

[4] = human plasma, 37° C., timepoint 0 h
[5] = human plasma, 37° C., timepoint 2 h
[6] = human plasma, 37° C., timepoint 6 h
[7] = human plasma, 37° C., timepoint 24 h
[8] = Balb C, mouse, Li-heparin plasma
[9] = mouse plasma, 37° C., timepoint 0 h
[10] = mouse plasma, 37° C., timepoint 2 h
[11] = mouse plasma, 37° C., timepoint 6 h
[12] = mouse plasma, 37° C., timepoint 24 h
[13] = in vivo, iv, 3 mg/kg, single i.v.
[14] = in vivo, iv, normalized to a dose of 1 mg/kg, given 3 mg/kg i.v.

CC(=O)N[C@@H](CO)C(=O)N[C@@H](CCCNC(=N)N)C(=O)N[C@@H](CC(C)C)C(=O)N[C@@H](CCC(=O)O)C(=O)N[C@H]1CCC(=O)NCCCC[C@@H](C(=O)N[C@@H](CCCNC(=N)N)C(=O)N[C@@H](CCCNC(=N)N)C(=O)N[C@@H](CC(C)C)C(=O)N[C@H](C(=O)N[C@@H](CCC(=O)O)C(N)=O)[C@@H](C)O)NC(=O)[C@H](CC(C)C)NC(=O)[C@H](CCC(=O)O)NC1=O [SD15192, Ac-Ser-Arg-Leu-Glu-(cyclo5)Glu-Glu-Leu-(cyclo8)Lys-Arg-Arg-Leu-Thr-Glu-NH2] (Ac-SRLEEELKRRLTE-NH2; lactam 5-8)
Kd (NbALFA): 0.0551 nM | ka (NbALFA): 1.05e+07 M⁻¹ s⁻¹ | kd (NbALFA): 0.000577 s⁻¹ | Conc. (% of T0) [1, 4]: 100.0 % of T0 | Mean (compound concentration) [1, 4]: 2.56 | Tube 2 (compound concentration) [1, 4]: 2.471 | Tube 3 (compound concentration) [1, 4]: 2.553 | Tube 1 (compound concentration) ([1]; human plasma, 37° C., timepoint 0 h, calibration range 0.1 to 10 μM): 2.667 | Mean (compound concentration) [1, 5]: 1.76 | Tube 1 (compound concentration) [1, 5]: 1.788 | Tube 2 (compound concentration) [1, 5]: 1.757 | Tube 3 (compound concentration) [1, 5]: 1.731 | Mean (compound concentration) [1, 6]: 0.88 | Tube 1 (compound concentration) [1, 6]: 0.876 | Tube 2 (compound concentration) [1, 6]: 0.868 | Tube 3 (compound concentration) [1, 6]: 0.883 | Tube 1 (compound concentration) [1, 7]: 0.031 | Tube 2 (compound concentration) [1, 7]: 0.036 | Tube 3 (compound concentration) [1, 7]: 0.046 | remaining at 2 h, 10 µM ([1]; human, human Li-heparin plasma): 68.6% | remaining at 6 h, 10 µM ([1]; human, human Li-heparin plasma): 34.2% | half-life ([1]; human, plasma, Half-life time, human plasma, 37° C., incubation 24 h (triplicates) or 6 h (duplicates)): 233 min | LogEC50 (anti-ALFA VHH): 0.7765 | EC50 (anti-ALFA VHH): 5.98 nM | remaining at 2 h, 10 µM [2, 8]: 85.9% | remaining at 6 h, 10 µM [2, 8]: 65.7% | remaining at 24 h, 10 µM [2, 8]: 23.9% | Conc. (% of T0) [2, 9]: 100.0 % of T0 | Mean (compound concentration) [2, 9]: 2.70 | Tube 2 (compound concentration) [2, 9]: 2.705 | Tube 3 (compound concentration) [2, 9]: 2.658 | Tube 1 (compound concentration) ([2]; mouse plasma, 37° C., timepoint 0 h, calibration range 0.1 to 10 μM): 2.731 | Mean (compound concentration) [2, 10]: 2.32 | Tube 1 (compound concentration) [2, 10]: 2.366 | Tube 2 (compound concentration) [2, 10]: 2.256 | Tube 3 (compound concentration) [2, 10]: 2.33 | Mean (compound concentration) [2, 11]: 1.77 | Tube 1 (compound concentration) [2, 11]: 1.851 | Tube 2 (compound concentration) [2, 11]: 1.679 | Tube 3 (compound concentration) [2, 11]: 1.791 | Mean (compound concentration) [2, 12]: 0.64 | Tube 1 (compound concentration) [2, 12]: 0.637 | Tube 2 (compound concentration) [2, 12]: 0.656 | Tube 3 (compound concentration) [2, 12]: 0.638 | half-life ([2]; mouse, plasma, Half-life time, mouse plasma, 37° C., incubation 24 h (triplicates) or 6 h (duplicates)): 707 min

CC(=O)N1CCC[C@H]1C(=O)N[C@@H](CO)C(=O)N[C@@H](CCCNC(=N)N)C(=O)N[C@@H](CC(C)C)C(=O)N[C@@H](CCC(=O)O)C(=O)N[C@H]1CCC(=O)NCCCC[C@@H](C(=O)N[C@@H](CCCNC(=N)N)C(=O)N[C@@H](CC(C)C)C(=O)N[C@H](C(=O)N[C@@H](CCC(=O)O)C(N)=O)[C@@H](C)O)NC(=O)[C@H](CCCNC(=N)N)NC(=O)[C@H](CC(C)C)NC(=O)[C@H](CCC(=O)O)NC1=O [SD15341, Ac-Pro-Ser-Arg-Leu-Glu-(cyclo6)Glu-Glu-Leu-Arg-(cyclo10)Lys-Arg-Leu-Thr-Glu-NH2] (Ac-PSRLEEELRKRLTE-NH2; lactam 6-10)
Kd (NbALFA): 0.0194 nM | ka (NbALFA): 1.86e+07 M⁻¹ s⁻¹ | kd (NbALFA): 0.000361 s⁻¹ | binding with respect to NbALFA (NbALFA; in words): very good binding | half-life ([3]; female, C57BL/6NRj, plasma, iv, 3 mg/kg): 6.69 min | area under the curve (AUC) compared to the linear alpha compound ([3]; i.v., in words): much higher | clearance compared to the linear alpha compound ([3]; i.v., in words): drastically reduced | MRT inf ([3]; in vivo, iv, 3 mg/kg): 4.5 min | MRT last ([3]; in vivo, iv, 3 mg/kg): 4.47 min | Tmax ([3]; in vivo, iv, 3 mg/kg): 1 min | clearance ([3]; in vivo, iv, 3 mg/kg): 52.8 mL/min/kg | AUC(0-inf) [3, 13]: 948 ng·h/mL | AUC(0-t) [3, 13]: 947 ng·h/mL | C0 ([3]; in vivo, iv, 3 mg/kg, C0, single i.v.): 15400 ng/mL | Cmax [3, 13]: 12700 ng/mL | Vd ([3]; in vivo, iv, 3 mg/kg, Vss, single i.v., 3 mg/kg): 0.237 L/kg | Vd ([3]; in vivo, iv, 3 mg/kg, Vz, single i.v.): 0.509 L/kg | AUC(0-inf) [3, 14]: 316 ng·h/mL | AUC(0-t) [3, 14]: 316 ng·h/mL | C0 ([3]; in vivo, iv, C0, normalized to a dose of 1 mg/kg, given 3 mg/kg i.v.): 5130 ng/mL | Cmax [3, 14]: 4240 ng/mL | AUCextra ([3]; single i.v., 3 mg/kg): 0.05% | Vc ([3]; single i.v., 3 mg/kg): 0.195 L/kg | t1/2effective ([3]; single i.v., 3 mg/kg): 3.10 min | t1/2initial ([3]; single i.v., 3 mg/kg): 2.41 min | λinitial ([3]; single i.v., 3 mg/kg): 0.29 min⁻¹ | λterminal ([3]; single i.v., 3 mg/kg): 0.10 min⁻¹

Ac-SRLEEELRRRLTE-NH2 [SD15197, Ac-Ser-Arg-Leu-Glu-Glu-Glu-Leu-Arg-Arg-Arg-Leu-Thr-Glu-NH2, reference compound]
Kd (NbALFA): 0.0117 nM | ka (NbALFA): 5.05e+07 M⁻¹ s⁻¹ | kd (NbALFA): 0.000593 s⁻¹ | LogEC50 (anti-ALFA VHH): 0.4145 | EC50 (anti-ALFA VHH): 2.6 nM | EC50 (anti-ALFA VHH; listed as parent linear ALFA peptide): 2.6 nM
